Source: the NIST ThermoML archive (doi:10.1021/je400659p)
± gives the expanded uncertainty stated by the source.

How the values were obtained:
[1] = xn = mol fraction of the nth substance listed; settings: 101 kPa, Liquid, Vibrating tube method
[2] = refractive index (Na D-line) (dimensionless); xn = mol fraction of the nth substance listed; settings: 101 kPa, Liquid, Standard Abbe refractometry

With CCn1cc[n+](C)c1.F[B-](F)(F)F [1-ethyl-3-methylimidazolium tetrafluoroborate] + C1COCCO1 the mass density ([1]; 293.15 K, x1 = 0.3292) was 1171.62 ± 0.6 kg/m3, the mass density ([1]; 293.15 K, x1 = 0.4547) was 1203.47 ± 0.73 kg/m3 and the mass density ([1]; 293.15 K, x1 = 0.4923) was 1211.84 ± 0.77 kg/m3. For the same compound, the mass density ([1]; 293.15 K, x1 = 0.6409) was 1240.74 ± 0.96 kg/m3, the mass density ([1]; 293.15 K, x1 = 0.6838) was 1246.89 ± 1 kg/m3 and the mass density ([1]; 293.15 K, x1 = 0.7851) was 1263.5 ± 1.2 kg/m3. It also gave a mass density ([1]; 293.15 K, x1 = 0.8336) of 1270.18 ± 1.2 kg/m3, a mass density ([1]; 293.15 K, x1 = 1) of 1290.63 ± 1.5 kg/m3 and a mass density ([1]; 298.15 K, x1 = 0.3292) of 1167.26 ± 0.6 kg/m3. It also gave a mass density ([1]; 298.15 K, x1 = 0.4547) of 1199.31 ± 0.72 kg/m3, a mass density ([1]; 298.15 K, x1 = 0.4923) of 1207.73 ± 0.76 kg/m3 and a mass density ([1]; 298.15 K, x1 = 0.6409) of 1236.77 ± 0.95 kg/m3. For the same compound, the mass density ([1]; 298.15 K, x1 = 0.6838) was 1242.94 ± 1 kg/m3, the mass density ([1]; 298.15 K, x1 = 0.7851) was 1259.61 ± 1.1 kg/m3 and the mass density ([1]; 298.15 K, x1 = 0.8336) was 1266.32 ± 1.2 kg/m3. The mass density ([1]; 298.15 K, x1 = 1) was 1286.82 ± 1.5 kg/m3, the mass density ([1]; 303.15 K, x1 = 0.3292) was 1163 ± 0.59 kg/m3 and the mass density ([1]; 303.15 K, x1 = 0.4547) was 1195.16 ± 0.72 kg/m3. It also gave a mass density ([1]; 303.15 K, x1 = 0.4923) of 1203.63 ± 0.76 kg/m3, a mass density ([1]; 303.15 K, x1 = 0.6409) of 1232.79 ± 0.94 kg/m3 and a mass density ([1]; 303.15 K, x1 = 0.6838) of 1238.89 ± 1 kg/m3. For the same compound, the mass density ([1]; 303.15 K, x1 = 0.7851) was 1255.72 ± 1.1 kg/m3, the mass density ([1]; 303.15 K, x1 = 0.8336) was 1262.45 ± 1.2 kg/m3 and the mass density ([1]; 303.15 K, x1 = 1) was 1283.02 ± 1.5 kg/m3. For the same compound, the mass density ([1]; 313.15 K, x1 = 0.3292) was 1154.24 ± 0.58 kg/m3, the mass density ([1]; 313.15 K, x1 = 0.4547) was 1186.92 ± 0.71 kg/m3 and the mass density ([1]; 313.15 K, x1 = 0.4923) was 1195.48 ± 0.75 kg/m3. The mass density ([1]; 313.15 K, x1 = 0.6409) was 1224.92 ± 0.93 kg/m3, the mass density ([1]; 313.15 K, x1 = 0.6838) was 1231.17 ± 0.98 kg/m3 and the mass density ([1]; 313.15 K, x1 = 0.7851) was 1248.01 ± 1.1 kg/m3. For the same compound, the mass density ([1]; 313.15 K, x1 = 0.8336) was 1254.79 ± 1.2 kg/m3, the mass density ([1]; 313.15 K, x1 = 1) was 1275.45 ± 1.4 kg/m3 and the mass density ([1]; 323.15 K, x1 = 0.3292) was 1145.14 ± 0.57 kg/m3. For the same compound, the mass density ([1]; 323.15 K, x1 = 0.4547) was 1178.43 ± 0.69 kg/m3, the mass density ([1]; 323.15 K, x1 = 0.4923) was 1187.38 ± 0.74 kg/m3 and the mass density ([1]; 323.15 K, x1 = 0.6409) was 1217.1 ± 0.92 kg/m3. It also gave a mass density ([1]; 323.15 K, x1 = 0.6838) of 1223.4 ± 0.97 kg/m3, a mass density ([1]; 323.15 K, x1 = 0.7851) of 1240.36 ± 1.1 kg/m3 and a mass density ([1]; 323.15 K, x1 = 0.8336) of 1247.18 ± 1.2 kg/m3. For the same compound, the mass density ([1]; 323.15 K, x1 = 1) was 1267.97 ± 1.4 kg/m3, the mass density ([1]; 333.15 K, x1 = 0.3292) was 1136.98 ± 0.56 kg/m3 and the mass density ([1]; 333.15 K, x1 = 0.4547) was 1170.56 ± 0.68 kg/m3. For the same compound, the mass density ([1]; 333.15 K, x1 = 0.4923) was 1179.33 ± 0.72 kg/m3, the mass density ([1]; 333.15 K, x1 = 0.6409) was 1209.33 ± 0.9 kg/m3 and the mass density ([1]; 333.15 K, x1 = 0.6838) was 1215.68 ± 0.96 kg/m3. The mass density ([1]; 333.15 K, x1 = 0.7851) was 1232.77 ± 1.1 kg/m3, the mass density ([1]; 333.15 K, x1 = 0.8336) was 1239.64 ± 1.2 kg/m3 and the mass density ([1]; 333.15 K, x1 = 1) was 1260.55 ± 1.4 kg/m3. It also gave a mass density ([1]; 343.15 K, x1 = 0.3292) of 1128.37 ± 0.56 kg/m3, a mass density ([1]; 343.15 K, x1 = 0.4547) of 1162.44 ± 0.67 kg/m3 and a mass density ([1]; 343.15 K, x1 = 0.4923) of 1171.31 ± 0.71 kg/m3. For the same compound, the mass density ([1]; 343.15 K, x1 = 0.6409) was 1201.62 ± 0.89 kg/m3, the mass density ([1]; 343.15 K, x1 = 0.6838) was 1208.02 ± 0.94 kg/m3 and the mass density ([1]; 343.15 K, x1 = 0.7851) was 1225.24 ± 1.1 kg/m3. For the same compound, the mass density ([1]; 343.15 K, x1 = 0.8336) was 1232.15 ± 1.1 kg/m3, the mass density ([1]; 343.15 K, x1 = 1) was 1253.18 ± 1.4 kg/m3 and the mass density ([1]; 353.15 K, x1 = 0.3292) was 1120.41 ± 0.55 kg/m3. The mass density ([1]; 353.15 K, x1 = 0.4547) was 1154.35 ± 0.66 kg/m3, the mass density ([1]; 353.15 K, x1 = 0.4923) was 1163.32 ± 0.7 kg/m3 and the mass density ([1]; 353.15 K, x1 = 0.6409) was 1193.95 ± 0.88 kg/m3. The mass density ([1]; 353.15 K, x1 = 0.6838) was 1200.41 ± 0.93 kg/m3, the mass density ([1]; 353.15 K, x1 = 0.7851) was 1217.75 ± 1.1 kg/m3 and the mass density ([1]; 353.15 K, x1 = 0.8336) was 1225.41 ± 1.1 kg/m3. For the same compound, the mass density ([1]; 353.15 K, x1 = 1) was 1245.87 ± 1.4 kg/m3, the refractive index ([2]; 298.15 K, x1 = 0.3292) was 1.4214 ± 0.0004 and the refractive index ([2]; 298.15 K, x1 = 0.4547) was 1.4197 ± 0.0005. The refractive index ([2]; 298.15 K, x1 = 0.4923) was 1.4191 ± 0.0005, the refractive index ([2]; 298.15 K, x1 = 0.6409) was 1.4165 ± 0.0005 and the refractive index ([2]; 298.15 K, x1 = 0.6838) was 1.4157 ± 0.0005. The refractive index ([2]; 298.15 K, x1 = 0.7851) was 1.414 ± 0.0005, the refractive index ([2]; 298.15 K, x1 = 0.8336) was 1.4132 ± 0.0005 and the refractive index ([2]; 298.15 K, x1 = 1) was 1.4111 ± 0.0005. For the same compound, the refractive index ([2]; 303.15 K, x1 = 0.3292) was 1.4195 ± 0.0004, the refractive index ([2]; 303.15 K, x1 = 0.4547) was 1.4181 ± 0.0005 and the refractive index ([2]; 303.15 K, x1 = 0.4923) was 1.4176 ± 0.0005. For the same compound, the refractive index ([2]; 303.15 K, x1 = 0.6409) was 1.415 ± 0.0005, the refractive index ([2]; 303.15 K, x1 = 0.6838) was 1.4143 ± 0.0005 and the refractive index ([2]; 303.15 K, x1 = 0.7851) was 1.4125 ± 0.0005. It also gave a refractive index ([2]; 303.15 K, x1 = 0.8336) of 1.4118 ± 0.0005, a refractive index ([2]; 303.15 K, x1 = 1) of 1.41 ± 0.0005 and a refractive index ([2]; 313.15 K, x1 = 0.3292) of 1.4163 ± 0.0004. The refractive index ([2]; 313.15 K, x1 = 0.4547) was 1.4154 ± 0.0005, the refractive index ([2]; 313.15 K, x1 = 0.4923) was 1.4149 ± 0.0005 and the refractive index ([2]; 313.15 K, x1 = 0.6409) was 1.4126 ± 0.0005. For the same compound, the refractive index ([2]; 313.15 K, x1 = 0.6838) was 1.4118 ± 0.0005, the refractive index ([2]; 313.15 K, x1 = 0.7851) was 1.41 ± 0.0005 and the refractive index ([2]; 313.15 K, x1 = 0.8336) was 1.4092 ± 0.0005. For the same compound, the refractive index ([2]; 313.15 K, x1 = 1) was 1.4073 ± 0.0005, the refractive index ([2]; 323.15 K, x1 = 0.3292) was 1.4129 ± 0.0004 and the refractive index ([2]; 323.15 K, x1 = 0.4547) was 1.4123 ± 0.0005. It also gave a refractive index ([2]; 323.15 K, x1 = 0.4923) of 1.4119 ± 0.0005, a refractive index ([2]; 323.15 K, x1 = 0.6409) of 1.4097 ± 0.0005 and a refractive index ([2]; 323.15 K, x1 = 0.6838) of 1.409 ± 0.0005. For the same compound, the refractive index ([2]; 323.15 K, x1 = 0.7851) was 1.4074 ± 0.0005, the refractive index ([2]; 323.15 K, x1 = 0.8336) was 1.4067 ± 0.0005 and the refractive index ([2]; 323.15 K, x1 = 1) was 1.4051 ± 0.0005.
